Assay results: patent US20170044107A1, “Inhibitors of JMJD2C as Anticancer Agents” (The J. David Gladstone Institutes, priority 2014, published 2017)
Structures can show the parent of a compound that is named as a salt.

Legend:
Format in all cases: cell-based
[1] = system: CWR22Rv1 androgen-independent prostate cancer cells; assay: CellTiter-Glo Luminescent Cell Viability Assay, CWR22Rv1 cells; settings: 48 hours treatment, % of survival normalized to DMSO control; for viability at 10 µM: CWR22Rv1, compound at 10 μM
Procedure: (§1) Cell viability assays were performed on three representative prostate cancer cell lines (i.e., CWR22Rvl, PC3 and DU145) to determine the effect of treatment with a series of 8-hydroxyquinoline derivatives.
(§2) Cell viability was assessed 48 hours after compound treatment with the CellTiter-Glo® Luminescent Cell Viability Assay (Promega), according to the manufacturer's protocol. Briefly, 5000 cells were plated into 96-well cell culture plates in DMEM supplemented with 10% FBS. After overnight incubation, compounds at indicated concentrations were added and the treatment was maintained for two days. At the end of compound treatment, 5.0 μL of CellTiter-Glo® Reagent was added to each well. Plates were returned to the incubator for 2 hours. Plates were then removed from the incubator and luminescence was measured in a standard luminescence plate reader. The luminescence signal was then used to calculate % of survival normalized to DMSO control treatment.

[2] = system: DU145 androgen-independent prostate cancer cells; assay: CellTiter-Glo Luminescent Cell Viability Assay, DU145 cells; settings: 48 hours treatment, % of survival normalized to DMSO control; for viability at 2 µM: Homo sapiens, DU-145, compound at 2 μM
Procedure: as §1, §2

[3] = system: PC3 androgen-independent prostate cancer cells; assay: CellTiter-Glo Luminescent Cell Viability Assay, PC3 cells; settings: 48 hours treatment, % of survival normalized to DMSO control; for viability at 2 µM: Homo sapiens, PC-3, compound at 2 μM
Procedure: as §1, §2

| Molecule | viability at 10 µM [1] [%] | viability at 2 µM [2] [%] | viability at 2 µM [3] [%] | % CWR22Rv1 Survival (Compound at 10 μM) [1] [%] | % DU145 Survival (Compound at 2 μM) [2] [%] | % PC3 Survival (Compound at 2 μM) [3] [%] |
| --- | --- | --- | --- | --- | --- | --- |
| CC(C)C(=O)NC(c1ccco1)c1ccc2cccnc2c1O (stereo not drawn) [SD70, N-(furan-2-yl(8-hydroxyquinolin-7-yl)methyl)isobutyramide] | 9 | 26 | 14 | – | – | – |
| CCC(=O)NC(c1ccco1)c1cc(Cl)c2cccnc2c1O (stereo not drawn) [SD70-1, N-((5-chloro-8-hydroxyquinolin-7-yl)(furan-2-yl)methyl)propionamide] | 93 | 87 | 47 | – | – | – |
| CC(C)C(=O)NC(c1ccco1)c1cc(Cl)c2cccnc2c1O (stereo not drawn) [SD70-2, N-((5-chloro-8-hydroxyquinolin-7-yl)(furan-2-yl)methyl)isobutyramide] | 100 | 32 | 9 | – | – | – |
| CC(=O)NC(c1ccco1)c1cc(Cl)c2cccnc2c1O (stereo not drawn) [SD70-3, N-((5-chloro-8-hydroxyquinolin-7-yl)(furan-2-yl)methyl)acetamide] | 110 | 110 | 88 | – | – | – |
| CCCC(=O)NC(c1ccco1)c1cc(Cl)c2cccnc2c1O (stereo not drawn) [SD70-4, N-((5-chloro-8-hydroxyquinolin-7-yl)(furan-2-yl)methyl)butyramide] | 110 | 29 | 7 | – | – | – |
| O=C(NC(c1ccco1)c1cc(Cl)c2cccnc2c1O)c1cccnc1 (stereo not drawn) [SD70-5, N-((5-chloro-8-hydroxyquinolin-7-yl)(furan-2-yl)methyl)nicotinamide] | 94 | 31 | 23 | – | – | – |
| COc1ccc(C(=O)NC(c2ccco2)c2cc(Cl)c3cccnc3c2O)cc1 (stereo not drawn) [SD70-6, N-((5-chloro-8-hydroxyquinolin-7-yl)(furan-2-yl)methyl)-4-methoxybenzamide] | 21 | 50 | 24 | – | – | – |
| O=C(COc1ccccc1)NC(c1ccco1)c1cc(Cl)c2cccnc2c1O (stereo not drawn) [SD70-7, N-((5-chloro-8-hydroxyquinolin-7-yl)(furan-2-yl)methyl)-2-phenoxyacetamide] | 28 | 21 | 21 | – | – | – |
| CCC(=O)NC(c1ccccc1OC)c1cc(Cl)c2cccnc2c1O (stereo not drawn) [SD70-8, N-((5-chloro-8-hydroxyquinolin-7-yl)(2-methoxyphenyl)methyl)propionamide] | 10 | 42 | 61 | – | – | – |
| CCC(=O)NC(c1ccc(OC)c(OC)c1)c1cc(Cl)c2cccnc2c1O (stereo not drawn) [SD70-9, N-((5-chloro-8-hydroxyquinolin-7-yl)(3,4-dimethoxyphenyl)methyl)propionamide] | 18 | 10 | 21 | – | – | – |
| CCC(=O)NC(c1ccco1)c1cc([N+](=O)[O-])c2cccnc2c1O (stereo not drawn) [SD70-10, N-(furan-2-yl(8-hydroxy-5-nitroquinolin-7-yl)methyl)propionamide] | 110 | 100 | 93 | – | – | – |
| CCC(=O)NC(c1ccco1)c1ccc2cccnc2c1O (stereo not drawn) [SD70-11, N-(furan-2-yl(8-hydroxyquinolin-7-yl)methyl)propionamide] | 16 | 120 | 79 | – | – | – |
| Oc1ccc(CCl)c2cccnc12 [SD70-15, 5-(chloromethyl)quinolin-8-ol hydrochloride] | 91 | 100 | 96 | – | – | – |
| Oc1ccc(COCc2ccccc2)c2cccnc12 [SD70-16, 5-(benzyloxymethyl)quinolin-8-ol] | 20 | 19 | 14 | – | – | – |
| Oc1ccc(CNCCN2CCOCC2)c2cccnc12 [SD70-17, 5-((2-morpholinoethylamino)methyl)quinolin-8-ol] | 7 | 100 | 98 | – | – | – |
| Oc1c(CN2CCN(c3ccccn3)CC2)ccc2cccnc12 [SD70-18, 7-((4-(pyridin-2-yl)piperazin-1-yl)methyl)quinolin-8-ol] | 27 | 110 | 125 | – | – | – |
| Oc1c(CNCCN2CCOCC2)ccc2cccnc12 [SD70-19, 7-((2-morpholinoethylamino)methyl)quinolin-8-ol] | 107 | 94 | 98 | – | – | – |
| Oc1c(CN2CCCCC2)ccc2cccnc12 [SD70-20, 7-(piperidin-1-ylmethyl)quinolin-8-ol] | 99 | 88 | 98 | – | – | – |
| CC(C)CCNCc1ccc2cccnc2c1O [SD70-21, 7-((isopentylamino)methyl)quinolin-8-ol] | 93 | 100 | 93 | – | – | – |
| COc1c(C(NC(=O)C(C)C)c2ccco2)ccc2cccnc12 (stereo not drawn) [SD70-23, N-(furan-2-yl(8-methoxyquinolin-7-yl)methyl)isobutyramide] | 96 | – | – | – | – | – |
| COc1ccc(C(NC(=O)C(C)C)c2ccc3cccnc3c2O)cc1OC (stereo not drawn) [SD70-24, N-((3,4-dimethoxyphenyl)(8-hydroxyquinolin-7-yl)methyl)isobutyramide] | 12 | – | – | – | – | – |
| CC(C)C(=O)NC(c1ccc([N+](=O)[O-])cc1)c1ccc2cccnc2c1O (stereo not drawn) [SD70-25, N-((8-hydroxyquinolin-7-yl)(4-nitrophenyl)methyl)isobutyramide] | 16 | – | – | – | – | – |
| N-((8-hydroxyquinolin-7-yl)(4-methoxyphenyl)methyl)isobutyramide isobutyramide [SD70-22] | – | – | – | 18 | 21 | 13 |
